# US20260048046A1, “METHOD FOR IMPROVING GROWTH PERFORMANCE IN FEEDLOT CATTLE” (Elanco US Inc., priority 2022, published 2026)
# Marks after values point to notes of the source that are not given here.
# System: beef feedlot cattle
# Experiment: 56-d study: carcass characteristics
# Type: in vivo
# Parameters: Marbling score, difference from control: scale not given here
# Conditions: for YG 1, proportion of cattle graded / YG 2, proportion of cattle graded / YG 3, proportion of cattle graded / YG 4, proportion of cattle graded / YG 5, proportion of cattle graded: arithmetic mean; for Adjusted fat thickness / Dressing percentage / KPH fat / Ribeye Area / Yield grade / carcass weight (HCW) / Marbling score: 56 d treatment, steers, LS mean; for Marbling score: 400 Small, 500 Modest, 600 Moderate
# Protocol: LUB was removed from feed at least 24 h before harvest to comply with the Food Use Authorization (FDA, 2016) granted by the FDA. Cattle were loaded for harvest shortly after collection of final pen live weights and transported to the slaughter facility at a stocking density of approximately 30 steers (i.e., half a pen of 60 steers) in one semi-trailer. The slaughter process was conducted in accordance with USDA requirements and standard slaughter site procedures. Animal/carcass identification was maintained by sequentially recording the ear tag numbers of cattle as they were slaughtered via a sequence number affixed to each carcass by trained personnel from the Beef Carcass Research Center (BCRC; West Texas A&M University, Canyon, TX) and correlating the individual ear tag number to the plant-assigned carcass ID number, which remained intact throughout the carcass data/sample collection phase. Following an industry-standard dressing procedure, each carcass was weighed for determination of HCW.
# Carcass evaluation occurred following the commercial plant's standard chilling period. The carcass quality and yield grade factors, marbling score, ribeye area, and objective 12th rib fat thickness were captured objectively using the VBG2000 camera system. Additionally, adjusted 12th rib fat thickness, kidney, pelvic, and heart (KPH) fat assessment, and other defects (dark cutters, blood splash, etc.) were recorded by trained personnel (BCRC). Skeletal maturity was obtained only on carcasses that were “B” maturity or greater, otherwise, skeletal, lean, and overall maturity and lean color were not obtained.
# Carcass defects (dark cutters, excessive trim) were noted by exception. The objective fat thickness was used to calculate the USDA yield grade. All carcasses were considered to be less than 30 mo of age; therefore, USDA quality grade was determined by using marbling score (USDA, 2019). The severity of the dark cutting condition was indicated by assigning the dark cutting carcasses to ⅓, ⅔, or full dark categories. Dark cutters were not excluded when determining quality grade, however, a summary of the frequency of dark cutter carcasses by treatment group is provided. Carcasses identified as excessively trimmed (greater than approximately 9.1 kg trim) were not excluded from the analysis, however, a summary of the frequency of excessively trimmed carcasses by treatment group is provided.
# The label claim variable of cumulative NH3 gas emissions over the treatment period normalized by final BW (with d −59 BW as a covariate) for the period and HCW (g of gas kg^−1 of BW or g of gas kg^−1 HCW) was determined by utilizing NH3 gas emissions equations developed from the LUB clinical effectiveness study (FDA-FOI, 2018) and validated using animals of similar BW as described by Brown et al. (2019). The pen was the experimental unit for each outcome. Differences were deemed significant using a two-sided test at Ptrt≤0.05, however, a less stringent significance threshold of Ptrt≤0.10 was used for abnormal health observations. Fixed effect of treatment and random effects of time replicate and block within time replicate were included in the model. Discrete variables were analyzed using a generalized linear mixed model, Proc GLIMMIX SAS version 9.4 unless there were convergence problems due to sparseness of data. A binomial distribution was assumed and a logit link used in the analysis. Contrasts were constructed between the CON group and each non-CON dosage group, and differences were deemed significant at Pdose≤0.05. If convergence problems arose due to sparseness of data, Fisher's exact test (binomial data; Proc FREQ in SAS) or Wilcoxon's rank-sum test (categorical data; Proc NARIWAY in SAS) was used to evaluate differences between the CON group and the non-CON dosage groups. In all cases except for health observations, differences were deemed significant at Ptrt≤0.05 for these primary discrete variables. […]
# [1] = 3.5 and 5.5 mg kg^−1 LUB groups, 56 d, Ptrt≤0.05
# [2] = all LUB groups, 56 d, Ptrt≤0.05
smiles,measurement,setting,value
"CC(C)(Cc1ccc(Oc2ncccc2C#N)cc1)NC[C@H](O)COc1ccccc1-c1cccs1 [LUB, 2-{4-[2-({(2S)-2-Hydroxy-3-[2-(2-thienyl)phenoxy]propyl}amino)-2-methylpropyl]phenoxy}nicotinonitrile]",Frequency of dark cutter carcasses,"1.5 mg kg^−1 LUB group, 56 d",0.6%
same,Frequency of excessively trimmed carcasses,"1.5 mg kg^−1 LUB group, 56 d",1.4%
same,"YG 1, proportion of cattle graded","1.5 mg·kg^−1 DM LUB, 56 d",5.4%
same,"YG 2, proportion of cattle graded","1.5 mg·kg^−1 DM LUB, 56 d",25.8^x %
same,"YG 3, proportion of cattle graded","1.5 mg·kg^−1 DM LUB, 56 d",49.0%
same,"YG 4, proportion of cattle graded","1.5 mg·kg^−1 DM LUB, 56 d",17.1^y %
same,"YG 5, proportion of cattle graded","1.5 mg·kg^−1 DM LUB, 56 d",2.7%
same,"KPH fat, difference from control","1.5 mg·kg^−1 vs. control, 56 d",0.01%
same,"Marbling score, difference from control","1.5 mg·kg^−1 vs. control, 56 d",−13.0
same,"Marbling score, percent change from Control","1.5 mg·kg^−1 vs. control, 56 d",−2.8%
same,"Ribeye area, difference from control","1.5 mg·kg^−1 vs. control, 56 d",3.3 cm^2
same,"Ribeye area, percent change from Control","1.5 mg·kg^−1 vs. control, 56 d",3.5%
same,"carcass weight (HCW), difference from control","1.5 mg·kg^−1 vs. control, 56 d",11.3 kg
same,"carcass weight (HCW), percent change from Control","1.5 mg·kg^−1 vs. control, 56 d",2.8%
same,Frequency of dark cutter carcasses,"3.5 mg kg^−1 LUB group, 56 d",0.3%
same,Frequency of excessively trimmed carcasses,"3.5 mg kg^−1 LUB group, 56 d",1.8%
same,"YG 1, proportion of cattle graded","3.5 mg·kg^−1 DM LUB, 56 d",5.5%
same,"YG 2, proportion of cattle graded","3.5 mg·kg^−1 DM LUB, 56 d",31.5^y %
same,"YG 3, proportion of cattle graded","3.5 mg·kg^−1 DM LUB, 56 d",44.0%
same,"YG 4, proportion of cattle graded","3.5 mg·kg^−1 DM LUB, 56 d",17.3^y %
same,"YG 5, proportion of cattle graded","3.5 mg·kg^−1 DM LUB, 56 d",1.7%
same,"KPH fat, difference from control","3.5 mg·kg^−1 vs. control, 56 d",0.01%
same,"Marbling score, difference from control","3.5 mg·kg^−1 vs. control, 56 d",−23.0
same,"Marbling score, percent change from Control","3.5 mg·kg^−1 vs. control, 56 d",−4.9%
same,"Ribeye area, difference from control","3.5 mg·kg^−1 vs. control, 56 d",5.4 cm^2
same,"Ribeye area, percent change from Control","3.5 mg·kg^−1 vs. control, 56 d",5.8%
same,"carcass weight (HCW), difference from control","3.5 mg·kg^−1 vs. control, 56 d",15.9 kg
same,"carcass weight (HCW), percent change from Control","3.5 mg·kg^−1 vs. control, 56 d",3.9%
same,Frequency of dark cutter carcasses,"5.5 mg kg^−1 LUB group, 56 d",0.1%
same,Frequency of excessively trimmed carcasses,"5.5 mg kg^−1 LUB group, 56 d",1.4%
same,"YG 1, proportion of cattle graded","5.5 mg·kg^−1 DM LUB, 56 d",6.2%
same,"YG 2, proportion of cattle graded","5.5 mg·kg^−1 DM LUB, 56 d",31.6^y %
same,"YG 3, proportion of cattle graded","5.5 mg·kg^−1 DM LUB, 56 d",44.2%
same,"YG 4, proportion of cattle graded","5.5 mg·kg^−1 DM LUB, 56 d",16.0^y %
same,"YG 5, proportion of cattle graded","5.5 mg·kg^−1 DM LUB, 56 d",2.0%
same,"KPH fat, difference from control","5.5 mg·kg^−1 vs. control, 56 d",0.03%
same,"Marbling score, difference from control","5.5 mg·kg^−1 vs. control, 56 d",−27.0
same,"Marbling score, percent change from Control","5.5 mg·kg^−1 vs. control, 56 d",−5.7%
same,"Ribeye area, difference from control","5.5 mg·kg^−1 vs. control, 56 d",5.7 cm^2
same,"Ribeye area, percent change from Control","5.5 mg·kg^−1 vs. control, 56 d",6.1%
same,"carcass weight (HCW), difference from control","5.5 mg·kg^−1 vs. control, 56 d",17.1 kg
same,"carcass weight (HCW), percent change from Control","5.5 mg·kg^−1 vs. control, 56 d",4.2%
same,Proportion of carcasses grading Select compared to CON,[1],increased
same,Yield grade 2 compared to CON,[1],increased
same,Adjusted fat thickness,LUB 1.5 mg·kg^−1 DM,1.53 cm
same,Dressing percentage,LUB 1.5 mg·kg^−1 DM,61.8%
same,KPH fat,LUB 1.5 mg·kg^−1 DM,2.12%
same,Ribeye Area,LUB 1.5 mg·kg^−1 DM,97.0 cm^2
same,Yield grade,LUB 1.5 mg·kg^−1 DM,3.14
same,carcass weight (HCW),LUB 1.5 mg·kg^−1 DM,418.3 kg
same,Marbling score,LUB 1.5 mg·kg^−1 DM,460
same,Adjusted fat thickness,LUB 3.5 mg·kg^−1 DM,1.48 cm
same,Dressing percentage,LUB 3.5 mg·kg^−1 DM,62.1%
same,KPH fat,LUB 3.5 mg·kg^−1 DM,2.12%
same,Ribeye Area,LUB 3.5 mg·kg^−1 DM,99.1 cm^2
same,Yield grade,LUB 3.5 mg·kg^−1 DM,3.02
same,carcass weight (HCW),LUB 3.5 mg·kg^−1 DM,423.9 kg
same,Marbling score,LUB 3.5 mg·kg^−1 DM,450
same,Adjusted fat thickness,LUB 5.5 mg·kg^−1 DM,1.48 cm
same,Dressing percentage,LUB 5.5 mg·kg^−1 DM,62.3%
same,KPH fat,LUB 5.5 mg·kg^−1 DM,2.14%
same,Ribeye Area,LUB 5.5 mg·kg^−1 DM,99.4 cm^2
same,Yield grade,LUB 5.5 mg·kg^−1 DM,3.01
same,carcass weight (HCW),LUB 5.5 mg·kg^−1 DM,425.1 kg
same,Proportion of carcasses grading Upper 2/3 Choice compared to CON,[2],decreased
same,Yield grade 4 compared to CON,[2],decreased
